“And” between values parts separate entries of the source, which are not always exact repeats. Equal entries are not always repeated.
What was measured:
A/J mice = assay: Local (BALF) and systemic cytokine induction after intranasal administration; type: in vivo, mouse
Experimental: 1V270 induces local inflammation by pulmonary administration. To study the ability of phospholipid conjugated TLR7 to initiate the local inflammation, 6 to 8-week old female A/J mice were intranasally administered with 1V270 (0.5, 1, 2 or 4 nmol per animal) in 5% DMSO in PBS. Mice were sacrificed two hours after the administration and serum and bronchial lavage fluid (BALF) were collected. The levels of IL-6, IL-12 and TNFα were determined by Luminex beads assay.
A/J mice received 10 nmol/animal 1V270 intranasally and BALF were collected 24, 48, and 72 hours after the administration. 1V270 could induce IL-12 and TNFα up to 48 hours (FIG. 10).
BALF and plasma were collected 24 hours later and cytokine levels determined by multiplex luminex assay.

TLR7 [1] = assay: IL-12 and IL-6 induction in BMDM from wild type and TLR7 deficient mice; type: cell-based, mouse; details: BMDM from TLR7 deficient (TLR7-KO) mice
[2] = Nanoparticle size and stability in PBS (Malvern Zetasizer); type: physicochemical; details: 50 μM or 100 μM
Experimental: 1V270 was dissolved in Phosal 50 PG (Phospholipid Gmbh, Cologne, Germany) to make a 20× concentrated solution. The Phosal 50 PG-1V270 mixture was further diluted (1:19) with nanopure water to make a 5% Phosal 50 PG:water suspension. The suspension was vortexed vigorously and sonicated in a sonicating bath for 10 minutes. The suspension was further sonicated with a probe sonicater (Branson Sonifier Cell Disrupter 185) at 30% power for a total of 30 seconds at 10 second intervals with 10 seconds rest between so as to not overheat the suspension. Finally, the suspension was passed through a 100 nm filter with syringe extruder a total of 10 times back and forth. The final nanoparticles were analyzed with a Malvern Zetasizer to check size distribution. The resulting particles may be referred to as nanoliposomes (a submicron bilayer lipid vesicle) (see Chapter 2 by Mozafari in: Liposomes, Methods in Molecular Biology, vol. 605, V. Weissing (ed.), Humana Press, the disclosure of which is incorporated by reference herein). Nanoliposomes provide more surface area and may increase solubility, bioavailability and targeting.
UV-1V270 particles were diluted in PBS to 50 μM (A) or 100 μM (B) and particle size measured over time. […] The particle size of UV-1V270 in PBS was relatively constant with an average of about 110 nm regardless of concentration.

TLR7 [3] = target: T1, TLR7 (Homo sapiens, UniProt Q9NYK1); assay: Cytokine induction (IL-6, IFNalpha1; Luminex) in human PBMC; type: cell-based; details: 18 hours, IL-6 (FIG. 3A)
T1 sequence (Q9NYK1 27-1049): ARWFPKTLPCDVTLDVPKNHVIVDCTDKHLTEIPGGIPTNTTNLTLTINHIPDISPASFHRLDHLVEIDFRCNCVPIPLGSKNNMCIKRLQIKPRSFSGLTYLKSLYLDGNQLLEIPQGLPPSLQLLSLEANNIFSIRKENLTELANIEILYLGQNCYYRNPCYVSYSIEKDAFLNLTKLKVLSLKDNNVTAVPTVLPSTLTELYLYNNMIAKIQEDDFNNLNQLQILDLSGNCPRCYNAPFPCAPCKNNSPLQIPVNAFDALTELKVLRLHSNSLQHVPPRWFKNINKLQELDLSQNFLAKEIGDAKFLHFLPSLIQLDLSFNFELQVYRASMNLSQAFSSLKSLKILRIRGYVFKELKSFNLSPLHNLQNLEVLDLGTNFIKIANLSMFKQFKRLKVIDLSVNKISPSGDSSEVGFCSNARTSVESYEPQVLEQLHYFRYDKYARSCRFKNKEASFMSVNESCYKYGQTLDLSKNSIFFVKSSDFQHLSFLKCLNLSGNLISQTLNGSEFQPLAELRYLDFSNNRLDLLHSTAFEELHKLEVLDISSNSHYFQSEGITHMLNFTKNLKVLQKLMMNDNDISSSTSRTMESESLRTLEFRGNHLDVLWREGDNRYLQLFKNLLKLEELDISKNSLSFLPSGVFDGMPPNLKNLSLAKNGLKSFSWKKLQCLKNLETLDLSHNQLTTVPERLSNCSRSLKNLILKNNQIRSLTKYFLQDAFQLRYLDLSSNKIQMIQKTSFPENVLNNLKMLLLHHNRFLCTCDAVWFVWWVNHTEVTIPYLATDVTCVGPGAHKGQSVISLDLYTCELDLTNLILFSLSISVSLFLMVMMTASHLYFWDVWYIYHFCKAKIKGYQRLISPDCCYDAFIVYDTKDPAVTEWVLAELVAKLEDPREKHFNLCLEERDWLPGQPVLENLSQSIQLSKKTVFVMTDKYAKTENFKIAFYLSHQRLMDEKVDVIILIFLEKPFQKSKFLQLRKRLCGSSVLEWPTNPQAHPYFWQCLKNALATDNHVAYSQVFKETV

What does the source list for `CCCCCCCC/C=C\CCCCCCCC(=O)OCC(COP(=O)(O)OCCNC(=O)c1ccc(Cn2c(=O)[nH]c3c(N)nc(OCCOC)nc32)cc1)OC(=O)CCCCCCC/C=C\CCCCCCCC` (centres unmarked) [Compound 6, 2-(4-((6-amino-2-(2-methoxyethoxy)-8-oxo-7H-purin-9(8H)-yl)methyl)benzamido)ethyl 2,3-bis(oleoyloxy)propyl phosphate]?
persistence of IL-12 and TNFα induction in BALF (A/J mice; i.n. 10 nmol/animal): up to 48 hours; local proinflammatory cytokines (IL-6, IL-12, TNFα) in BALF (A/J mice; i.n. 2 to 4 nmol in 5% DMSO in PBS, two hours after administration): induced local proinflammatory cytokines in the BALF; localized versus systemic cytokine release (A/J mice; i.n., BALF and plasma 24 hours later): promoted localized cytokine release with minimal systemic side effects; BALF cytokine levels compared with serum (A/J mice; i.n., two hours after administration): higher than those in the serum; IL-12 and IL-6 induction in TLR7 deficient BMDM (TLR7 [1]): little or no IL-12 and IL-6; nanoparticle stability over time [2]: generally stable over time; particle size, average diameter ([2]; regardless of concentration): about 110 nm; order of TLR7 conjugate potency (TLR7 [3]): (4b)>(6)>(9)>/=SM>(8) and 4b>6>9>SM=8

Source: patent publication US20130202629A1, “USES OF PHOSPHOLIPID CONJUGATES OF SYNTHETIC TLR7 AGONISTS” (The Regents of the University of California, priority 2010, published 2013)
